Experimental data published in patent US6403647B1, “Pulsed administration of compositions for the treatment of blood disorders” (priority 1996, dated 2002).
Entries after “also recorded” stand apart in the source; their conditions may differ.

Assays:
[1] = Conventional versus pulse treatment of a sickle cell patient; format: in vivo, human
Method: Conventional treatment: A patient with sickle cell disease was tested with arginine butyrate at 750 mg/kg. Drug was administered by infusion for 10-16 hours per day and 5 days/week. […] After 150 days, total HbF declined to about 10%.
Pulse treatment: Treatment of the same sickle cell patient as above was changed from weekly to pulse administration of arginine butyrate about one year later (FIG. 5B). Arginine butyrate was administered by infusion at 500 to 750 mg/kg for 4 days for about 10-16 hours per day. After the 4 day regimen, drug was withheld for 10 days before treatment was repeated. This regimen was continued for about 5 months and percent total fetal hemoglobin increased to over 20%. This level was maintained until treatment was discontinued. Hemoglobin F levels above 20% are generally considered to be sufficient to eliminate symptoms associated with sickle cell disease.

[2] = Weekly versus pulse butyrate therapy in sickle cell and beta thalassemia patients; format: in vivo, human; design: F-retics On / F-cells On: unit not given here
Method: To determine if arginine butyrate can be used for therapeutic benefit, two low-dose regimens of butyrate were studied. Treatment were given intermittently either weekly, or in a pulse fashion, at 2-3 week intervals. […]
Patients were treated by pulse therapy for 4-18 months with arginine butyrate. […] It is preferred to avoid prolonged treatment with high doses of butyrate, which cause cellular growth arrest in G1, and can enhance the accelerated apoptosis of beta thalassemia. Partial tolerance observed with long-term weekly therapy appears related to erythroid cell growth arrest and a decline in EPO levels as Hgb and Hct rise and depletion of available iron stores. Treatment with additional doses of iron supplements can overcome some of the anti-proliferative activities of butyrate in vitro. Time required on therapy has been only 25%-35% of the treatment days per month necessary for effective transfusion and iron chelation. This has improved the quality of life of some patients.
To determine if these potentially opposing actions can be balanced for therapeutic effect, two intermittent schedules of butyrate were compared in 21 treatment courses in 14 patients ages 3 to 55 years, with sickle cell disease or β thalassemia. An optimal dose was identified on an individual patient regimen and continued on a weekly basis in eleven patients. Providing 7 to 14 days without any drug exposure to facilitate proliferation of treated cells, an alternate week regimen or pulse therapy, was administered to twelve patients (see Tables V, VI and VI).
A series of ten patients with sickle cell anemia and β-thalassemia were treated with continuous therapy with arginine butyrate. In 3 out of 4, transfusion requirement was diminished. […] The mean peak in total HgB which was detectable in the ten patients over their baseline was 1.6 gm/dl.
Patients were next administered a pulse therapy regimen. Each session comprised eight to twelve hours of nightly infusions. […] Total increases in Hgb were sustained as high as 3.0 g/dl above baseline levels with a mean increase of 2.1 g/dl in 8 out of 12 patients (p<0.05, paired t-test, chi square).

[3] = pulse therapy, 4/6 severe thalassemia patients
[4] = weekly therapy, patient Hb SS, 24 weeks
[5] = weekly therapy, patient HbSS, 4 weeks
[6] = weekly therapy, patient frameshift 5, 5 weeks
[7] = weekly therapy, patient β-39,-39, 8 weeks
[8] = weekly therapy, patient βIVS I, 1-6, 40 weeks

## arginine butyrate
[1]; conventional treatment, after 150 days
  percent total HbF: about 10%
[1]; conventional, 750 mg/kg infusion 10-16 hours per day, 5 days/week, from 3%
  percent total HbF: 15-18%
[1]; pulse, 500 to 750 mg/kg for 4 days, 10 days withheld, about 5 months
  percent total fetal hemoglobin: over 20%
[2]; 4 days, infusions about 8 hours per day, followed by 7 days of no treatment
  fetal hemoglobin levels: rise substantially
[2]; continuous therapy
  patients with diminished transfusion requirement: 3 out of 4
[2]; continuous therapy, ten patients
  mean peak in total HgB over baseline: 1.6 gm/dl
[2]; intermittent pulse therapy
  patients responding hematologically: 8/10
[2]; pulse regimen, thalassemia major
  transfusion-dependency: eliminated previous transfusion-dependency; also recorded: Transfusion-dependency was eliminated
[2]; pulse therapy
  hematologic responses above baseline levels: 2-5 gram/dl
[2]; pulse therapy for 4-18 months
  patients with fetal globin genes reactivated to a hematologically compensating degree: 8 out of 12
[2]; pulse therapy regimen
  total increases in Hgb above baseline, sustained: ≤ 3.0 g/dL
[2]; pulse therapy regimen, 8 out of 12 patients
  mean increase in Hgb above baseline: 2.1 g/dL
[2]; [3]
  increase in total Hb levels: 2-3 grams/dl
  total Hb level reached: > 9.0 gm/dl
[2]; pulse therapy, patient
  Hb F reached: 29%
[2]; pulse therapy, patient HbE/?, 15 weeks
  Increase in Total Hgb: 1.7 g/dL
[2]; pulse therapy, patient HbE/?, 15 weeks, Base 0.17
  Non-∀/∀* On (non-α: α globin chain synthesis ratios): 0.25
[2]; pulse therapy, patient HbE/?, 15 weeks, Base 79
  F-cells On: 84
[2]; pulse therapy, patient HbSS, 7 weeks, Base 0.5
  Percent HbF On: 1.5%
[2]; pulse therapy, patient HbSS, 7 weeks, Base 8
  F-retics On: 9.3
[2]; pulse therapy, patient HbSS, 7 weeks, Base 11
  F-cells On: 8
[2]; pulse therapy, patient HbSS, 9 weeks, Base 0.5
  Percent HbF On: 1.0%
[2]; pulse therapy, patient HbSS, 9 weeks, Base 0.7
  F-retics On: 6.7
[2]; pulse therapy, patient HbSS, 9 weeks, Base 15
  F-cells On: 0.5
[2]; pulse therapy, patient HbSS, 11 weeks
  Increase Total Hgb: +1.0 g/dl
[2]; pulse therapy, patient HbSS, 11 weeks, Base 3
  Percent HbF On: 24%
[2]; pulse therapy, patient HbSS, 11 weeks, Base 18
  F-retics On: 25
[2]; pulse therapy, patient HbSS, 11 weeks, Base 28
  F-cells On: 58
[2]; pulse therapy, patient HbSS, 15 weeks
  Increase Total Hgb: +2.0 g/dl
[2]; pulse therapy, patient HbSS, 15 weeks, Base 6.9
  Percent HbF On: 22%
[2]; pulse therapy, patient HbSS, 15 weeks, Base 12.6
  F-retics On: 24
[2]; pulse therapy, patient HbSS, 15 weeks, Base 23
  F-cells On: 59
[2]; pulse therapy, patient HbSS, 18 weeks
  Increase Total Hgb: +2.0 g/dl
[2]; pulse therapy, patient HbSS, 18 weeks, Base 8
  Percent HbF On: 35%
[2]; pulse therapy, patient HbSS, 18 weeks, Base 35
  F-retics On: 46
[2]; pulse therapy, patient HbSS, 18 weeks, Base 50
  F-cells On: 65
[2]; pulse therapy, patient HbSS, 28 weeks
  Increase Total Hgb: +1.0 g/dl
[2]; pulse therapy, patient HbSS, 28 weeks, Base 6
  Percent HbF On: 29%
[2]; pulse therapy, patient HbSS, 28 weeks, Base 18
  F-retics On: 36
[2]; pulse therapy, patient HbSS, 28 weeks, Base 42
  F-cells On: 56
[2]; pulse therapy, patient frameshift-5, 24 weeks, Base 0.5
  Non-∀/∀* On (non-α: α globin chain synthesis ratios): 0.75
[2]; pulse therapy, patient frameshift-5, 24 weeks, Base 100
  F-cells On: 100
[2]; pulse therapy, patient β-39-87, 68 weeks
  Increase in Total Hgb: 3.6 g/dL
[2]; pulse therapy, patient β-39-87, 68 weeks, Base 0.6
  Non-∀/∀* On (non-α: α globin chain synthesis ratios): 1.1
[2]; pulse therapy, patient β-39-87, 68 weeks, Base 29
  F-cells On: 100
[2]; pulse therapy, patient β-39, 7 weeks
  Increase in Total Hgb: 3.0 g/dL
[2]; pulse therapy, patient β-39, 7 weeks, Base 0.4
  Non-∀/∀* On (non-α: α globin chain synthesis ratios): 0.9
[2]; pulse therapy, patient β-39, 7 weeks, Base 100
  F-cells On: 100
[2]; pulse therapy, patient βIVS I-1, 4 weeks
  Increase in Total Hgb: 2.1 g/dL
[2]; pulse therapy, patient βIVS I-1, 4 weeks, Base 0.5
  Non-∀/∀* On (non-α: α globin chain synthesis ratios): 0.9
[2]; pulse therapy, patient βIVS I-1, 4 weeks, Base 100
  F-cells On: 100
[2]; pulse therapy, patient βIVS II, 33 weeks, Base 0.5
  Non-∀/∀* On (non-α: α globin chain synthesis ratios): 0.7
[2]; pulse therapy, patient βIVS II, 33 weeks, Base 10
  F-cells On: 16
[2]; pulse therapy, sickle cell and beta thalassemia patients
  patients with desired hematologic responses: 8 of 12
[2]; up to 17 months of home therapy and 350 weeks of patient treatment
  adverse side effects: No significant adverse side effects
[2]; weekly therapy
  Hb F responses: 4-10%
  patients with biochemical (Hb F) responses: 8/10
  patients with biochemical increases in fetal globin expression: 8/11
  rises in total hemoglobin, mean: 1.6 gm/dl
[2]; weekly therapy, in 6/10
  increases in total Hb above baseline levels: 1-4 gram/dl
[2]; [4]
  Comments: response declined
  Increase in Total Hgb: +2.0 gm/dl
[2]; weekly therapy, patient Hb SS, 24 weeks, Base 12.7
  F-retics On: 35.3
[2]; weekly therapy, patient HbE/?, 9 weeks
  Comments: transfusions cont.
[2]; weekly therapy, patient HbE/?, 9 weeks, Base 42
  F-retics On: 52.7
[2]; weekly therapy, patient HbS, β-39, 6 weeks
  Comments: transfusions cont.
[2]; weekly therapy, patient HbS, β-39, 6 weeks, Base 4
  F-retics On: 20
[2]; [5]
  Comments: response declined
  Increase in Total Hgb: +1.0 gm/dl
[2]; weekly therapy, patient HbSS, 4 weeks, Base 14
  F-retics On: 30.7
[2]; [6]
  Comments: response declined
  Increase in Total Hgb: +1.0 gm/dl
[2]; weekly therapy, patient frameshift 5, 5 weeks, Base 0.5
  F-retics On: 1
[2]; weekly therapy, patient β(-39-39), 8 weeks
  Comments: AIHA, trans. cont.
[2]; weekly therapy, patient β(-39-39), 8 weeks, Base 60
  F-retics On: 77
[2]; [7]
  Comments: plateaued
  Increase in Total Hgb: 1.5 gm/dl
[2]; weekly therapy, patient β-39,-39, 8 weeks, Base 76
  F-retics On: 68
[2]; weekly therapy, patient β-39-87, 16 weeks
  Increase in Total Hgb: +2.3 gm/dl
[2]; weekly therapy, patient β-39-87, 16 weeks, Base 64.7
  F-retics On: 67.3
[2]; [8]
  Comments: response declined
  Increase in Total Hgb: +4.3 gm/dl
[2]; weekly therapy, patient βIVS I, 1-6, 40 weeks, Base 56
  F-retics On: 75
[2]; weekly therapy, patient βIVS II-745, 7 weeks
  Increase in Total Hgb: 3 gm/dl
[2]; weekly therapy, patient βIVS II-745, 7 weeks, Base 4
  F-retics On: 16
[2]; weekly therapy, the 6 responsive patient (6/9 treated)
  rises in total hemoglobin, mean: 2.4 gm/dl
